Results from ChEMBL document CHEMBL5724696, “Autophagy assay results for EUbOPEN Chemogenomics Library” (2024).

Test system: TERT-RPE1
Assay: Here: values are normalized to the negative (DMSO; defined as 0% autophagy induction) and positive (250nM Torin1; mTOR inhibitor; defined as maximal inducer of autophagy = 100%) control compounds and represented as % of autophagy induction. […] The impact of autophagy induction on cells is complex and depends on the affected target. As such, the magnitude of a phenotype may not be equally mirrored in the %-value of autophagy induction and vice versa. The dynamics of the induction may indicate the mode of activation: e.g. activation via phosphorylation or a signaling cascade may occur fast, while activation via transcription factors may take considerably longer. […] Of note, treatment concentrations may be sub-optimal for specific compounds, leading to false negative annotations.
Assay type: functional, Homo sapiens
Conditions: Culturing Media DMEM/F12 (1:1), 1 % Penicillin/Streptomycin, 10% Fetal bovin serum Add-On: No, Screening Media Control DMEM/F12 (1:1), Screening Media Samples DMEM/F12 (1:1)
[1] = Compound Concentration 1 uM, Timepoint 12 hours
[2] = Compound Concentration 1 uM, Timepoint 24 hours
[3] = Compound Concentration 1 uM, Timepoint 36 hours
[4] = Compound Concentration 1 uM, Timepoint 60 hours
[5] = Compound Concentration 10 uM, Timepoint 12 hours
[6] = Compound Concentration 10 uM, Timepoint 24 hours
[7] = Compound Concentration 10 uM, Timepoint 36 hours
[8] = Compound Concentration 10 uM, Timepoint 60 hours

Row | Structure (SMILES) | autophagy induction [1] [%] | autophagy induction [2] [%] | autophagy induction [3] [%] | autophagy induction [4] [%] | autophagy induction [5] [%] | autophagy induction [6] [%] | autophagy induction [7] [%] | autophagy induction [8] [%]
1 | CC(C)(O)c1cn(-c2ccc(-c3cccc(S(C)(=O)=O)c3)cc2)c(C(C)(C)c2ccccc2Cl)n1 [BMS-779788] | -11.1228 | -2.718 | 17.5149 | -24.6575 | – | – | – | –
2 | C=C1/C(=C\C=C2/CCC[C@]3(C)[C@@H]([C@H](C)CCCC(C)(C)O)CC[C@@H]23)C[C@@H](O)C[C@@H]1O [CALCITRIOL] | 36.7455 | -4.807 | 11.5028 | -14.2726 | – | – | – | –
3 | O=C(O)c1ccnc(N2CC(O)(c3ccc(OCc4c(-c5c(Cl)cccc5Cl)noc4C4CC4)cc3Cl)C2)c1 [CILOFEXOR] | 6.577 | 4.142 | 10.1768 | 9.429 | – | – | – | –
4 | CC(C)(C[C@H]1CN(S(=O)(=O)c2cccc(C(F)(F)F)c2)c2cc(-c3cc(F)cc(OC(F)F)c3)ccc2O1)C(=O)O [CINTIRORGON] | -13.5912 | -2.372 | 17.7364 | -18.8569 | – | – | – | –
5 | C[C@H]1[C@H]2CC[C@H]3[C@@H]4CC=C5C[C@@H](N(C)C)CC[C@]5(C)[C@H]4CC[C@]23CN1C [CONESSINE] | -9.079 | -15.7832 | -16.9143 | 14.1244 | – | – | – | –
6 | C=C1/C(=C\C=C2/CCC[C@]3(C)[C@@H]([C@H](C)/C=C/[C@H](C)C(C)C)CC[C@@H]23)C[C@@H](O)C[C@@H]1O [DOXERCALCIFEROL] | -0.6335 | -0.7736 | 0.8774 | -4.588 | – | – | – | –
7 | CSc1ccc(C(=O)/C=C/c2cc(C)c(OC(C)(C)C(=O)O)c(C)c2)cc1 [ELAFIBRANOR] | -15.4717 | -8.668 | 8.143 | -14.713 | – | – | – | –
8 | CC(C)c1c(CN(C)C(C)Cc2ccccc2)n(C)n(-c2ccccc2)c1=O (stereo not drawn) [FAMPROFAZONE] | -9.526 | -5.45 | -2.084 | -36.1562 | – | – | – | –
9 | COC(=O)/C=C/c1cccc(N(Cc2ccc(-c3ccc(N(C)C)cc3)cc2)C(=O)C2CCCCC2)c1 [FEXARAMINE] | -11.8732 | 0.4959 | 16.8927 | -24.9579 | – | – | – | –
10 | CCc1ccc(N(CC(C)C)S(=O)(=O)c2ccc(OCC3CCOCC3)c(CO)c2)cc1 [GSK2981278] | 1.382 | -2.385 | -1.59 | 5.376 | – | – | – | –
11 | CCCCCCCN(CCc1ccc(SC(C)(C)C(=O)O)cc1)C(=O)Nc1ccc(F)cc1F [GSK-9578] | -3.328 | -4.346 | -1.192 | -5.756 | – | – | – | –
12 | CC(C)(Sc1ccc(CCN(CCCCC2CCCCC2)C(=O)NC2CCCCC2)cc1)C(=O)O [GW7647] | -14.4765 | -1.331 | 15.0253 | -17.5748 | – | – | – | –
13 | Cc1cc(SCc2sc(-c3ccc(C(F)(F)F)cc3)nc2C)ccc1OCC(=O)O [GW501516] | 35.2172 | -7.412 | 9.218 | -19.4944 | – | – | – | –
14 | Cc1nc(-c2ccc(C(F)(F)F)cc2)sc1C(=O)NCc1ccc(OC(C)(C)C(=O)O)cc1 [GW590735] | -16.082 | -2.956 | 16.0196 | -2.481 | – | – | – | –
15 | O=C(O)CCCc1cc2cc(Cl)ccc2n1S(=O)(=O)c1ccc2ncsc2c1 [LANIFIBRANOR] | -95.7021 | -0.9693 | 14.6224 | -20.9711 | – | – | – | –
16 | N[C@@H](Cc1cc(I)c(Oc2ccc(O)c(I)c2)c(I)c1)C(=O)O [LIOTHYRONINE] | 142.376 | -11.4171 | 8.172 | -7.587 | – | – | – | –

Row | Structure (SMILES) | autophagy induction [1] [%] | autophagy induction [2] [%] | autophagy induction [3] [%] | autophagy induction [4] [%] | autophagy induction [5] [%] | autophagy induction [6] [%] | autophagy induction [7] [%] | autophagy induction [8] [%]
17 | CC[C@H](C)C(=O)O[C@H]1C[C@@H](C)C=C2C=C[C@H](C)[C@H](CC[C@@H]3C[C@@H](O)CC(=O)O3)[C@H]21 [LOVASTATIN] | -7.01 | 13.8584 | 45.8036 | 48.5439 | – | – | – | –
18 | COc1ccc(OC(=O)N(CC(=O)O)Cc2ccc(OCCc3nc(-c4ccccc4)oc3C)cc2)cc1 [MURAGLITAZAR] | 84.7945 | -9.438 | 5.064 | -9.533 | – | – | – | –
19 | O=C(O)c1ccc2cc(-c3ccc(O)c(C45CC6CC(CC(C6)C4)C5)c3)ccc2c1 [O-DEMETHYLATED ADAPALENE] | -7.665 | -12.7242 | -13.449 | 12.49 | – | – | – | –
20 | CC[C@H]1[C@@H](O)[C@@H]2[C@H](CC[C@]3(C)[C@@H]([C@H](C)CCC(=O)O)CC[C@@H]23)[C@@]2(C)CC[C@@H](O)C[C@@H]12 [OBETICHOLIC ACID] | -8.507 | -7.962 | -3.9436 | 2.71 | – | – | – | –
21 | O=c1[nH]c2ccccc2n1CCCN1CCN(C(c2ccccc2)c2ccccc2)CC1 [OXATOMIDE] | – | – | – | – | 12.1676 | 23.0166 | 23.6799 | -2.469
22 | CCC(C)N(C)C(=O)c1cc2ccccc2c(-c2ccccc2Cl)n1 (stereo not drawn) [PK-11195] | – | – | – | – | -6.134 | 6.633 | 20.4099 | 30.5956
23 | CC(C)c1cc(Oc2c(Cl)cc(-n3nc(C#N)c(=O)[nH]c3=O)cc2Cl)n[nH]c1=O [RESMETIROM] | -11.5681 | 0.0003786 | 17.8213 | -19.2681 | – | – | – | –
24 | CO[C@H]1/C=C/O[C@@]2(C)Oc3c(C)c(O)c4c(O)c(c(/C=N/N5CCN(C)CC5)c(O)c4c3C2=O)NC(=O)/C(C)=C\C=C\[C@H](C)[C@H](O)[C@@H](C)[C@@H](O)[C@@H](C)[C@H](OC(C)=O)[C@@H]1C [RIFAMPIN] | -6.53 | -7.862 | -4.147 | 5.829 | – | – | – | –
25 | CN(CCOc1ccc(CC2SC(=O)NC2=O)cc1)c1ccccn1 (stereo not drawn) [ROSIGLITAZONE] | -11.8893 | 0.9014 | 16.9691 | -11.1596 | – | – | – | –
26 | C=C1/C(=C\C=C2/CCC[C@]3(C)[C@@H]([C@H](C)/C=C/C=C/C(O)(CC)CC)CC[C@@H]23)C[C@@H](O)C[C@@H]1O [SEOCALCITOL] | 1.435 | 3.014 | 6.115 | 9.3722 | – | – | – | –
27 | Cc1cc(OCC(=O)O)cc(C)c1Cc1ccc(O)c(C(C)C)c1 [SOBETIROME] | -4.298 | -6.005 | 3.899 | 12.5403 | – | – | – | –
28 | CCOC(=O)N1CCC(CN(Cc2ccc(Cl)cc2)Cc2ccc([N+](=O)[O-])s2)C1 (stereo not drawn) [SR9009] | -2.29 | -4.7715 | -4.329 | -0.7127 | – | – | – | –
29 | CCCCCNC(=O)N1CCC(CN(Cc2ccc(Cl)cc2)Cc2ccc([N+](=O)[O-])s2)C1 (stereo not drawn) [SR9011] | -13.327 | -1.26 | 19.5212 | -21.0748 | – | – | – | –
30 | O=S(=O)(c1ccccc1)N(CC(F)(F)F)c1ccc(C(O)(C(F)(F)F)C(F)(F)F)cc1 [T091317] | -11.1926 | -0.1715 | 8.77 | -29.9579 | – | – | – | –
31 | CC1(C)CCC(C)(C)c2cc(NC(=O)c3ccc(C(=O)O)cc3)ccc21 [TAMIBAROTENE] | -36.8107 | -29.3713 | -7.633 | 34.9259 | – | – | – | –
32 | CCOC(=O)c1ccc(C#Cc2ccc3c(c2)C(C)(C)CCS3)nc1 [TAZAROTENE] | -17.2771 | -27.562 | -16.2551 | 40.4791 | – | – | – | –
